Experimental findings from patent US7897788B2, “Indol-1-yl-acetic acid derivatives” (Actelion Pharmaceutical Ltd., priority 2004, dated 2011) are described below.

Assay [1] has as its target T1, hCRTH2 receptor (Homo sapiens, UniProt Q9Y5Y4).
T1 construct: expressed in transfected cells
T1 sequence (Q9Y5Y4 1-395): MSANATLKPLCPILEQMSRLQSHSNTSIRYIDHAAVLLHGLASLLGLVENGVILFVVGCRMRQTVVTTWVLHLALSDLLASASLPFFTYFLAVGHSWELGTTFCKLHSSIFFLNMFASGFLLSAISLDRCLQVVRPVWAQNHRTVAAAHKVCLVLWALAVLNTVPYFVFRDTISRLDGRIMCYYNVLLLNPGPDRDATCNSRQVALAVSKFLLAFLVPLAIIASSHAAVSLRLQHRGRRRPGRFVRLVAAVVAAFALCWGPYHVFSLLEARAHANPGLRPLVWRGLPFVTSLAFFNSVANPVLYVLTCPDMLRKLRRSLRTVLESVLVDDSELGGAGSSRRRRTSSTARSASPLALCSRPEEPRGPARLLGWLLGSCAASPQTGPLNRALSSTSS
As to the kind of experiment: Intracellular calcium mobilization assay (FLIPR), Example B-2. It counts as cell-based. The conditions noted are these: HEK-293 cells expressing hCRTH2; 10 nM prostaglandin D2 as agonist; read-out: CRTH2 FLIPR IC50 (nM) (method B2 above). The procedure: A functional assay with cells expressing the human CRTH2 receptor may be used to detect changes in the levels of intracellular calcium concentration following compound treatment. After addition of the compound the cells are challenged with PGD2. In a Fluorescent Imaging Plate Reader (FLIPR™, Molecular Devices, Sunnyvale, Calif.) fluorescence emission is recorded during both additions, emission peak values above base level after PGD2 addition were exported, normalized to low controls (no PGD2) and high controls (no active compound). The relative values of the remaining activity were used to determine IC50 values by curve fitting the data to a single site to a four-parameter logistic sigmoid dose response curve of the equation (A+((B−A)/(1+((C/x)^D)))).
The ability of the compounds to antagonize PGD2 induced change of intracellular calcium levels via CRTH2 activation may be measured by methods known of one skilled in the art or by the method described below in Example B-2.
Cells (HEK-293), stably expressing the hCRTH2 receptor under the control of the cytomegalovirus promotor from a single insertion of the expression vector pcDNA5 (Invitrogen), are grown to confluency in DMEM (low glucose, Gibco) medium supplemented with 10% fetal calf serum (both Bioconcept, Switzerland) under standard mammalian cell culture conditions (37° C. in a humidified atmosphere of 5% CO2). Cells are detached from culture dishes using a dissociation buffer (0.02% EDTA in PBS, Gibco) for 1 min, and collected by centrifugation at 200 g at rt for 5 min in assay buffer (equal parts of Hank's BSS (HBSS, Bioconcept) and DMEM (low glucose, without phenol red, Gibco)). After incubation for 45 min (37° C. and 5% CO2) in the presence of 1 μM Fluo-4 and 0.04% Pluronic F-127 (both Molecular Probes), 20 mM HEPES (Gibco) in assay buffer, the cells are washed with and resuspended in assay buffer, then seeded onto 384-well FLIPR assay plates (Greiner) at 50,000 cells in 66 μl per well), and sedimented by centrifugation.
Stock solutions of test compounds are made up at a concentration of 10 mM in DMSO, and serially diluted in assay buffer to concentrations required for inhibition dose response curves. Prostaglandin D2 (Biomol, Plymouth Meeting, Pa.) is used as an agonist.
A FLIPR384 instrument (Molecular Devices) is operated according to the manufacturer's standard instructions, adding 4 μl of test compound dissolved at 10 mM in DMSO and diluted prior to the experiment in assay buffer to obtain the desired final concentration. 10 μl of 80 nM prostaglandin D2 (Biomol, Plymouth Meeting, Pa.) in assay buffer, supplemented with 0.8% bovine serum albumin (fatty acid content<0.02%, Sigma), is then added to obtain a final concentration of 10 nM and 0.1%, respectively. Changes in fluorescence are monitored before and after the addition of test compounds at λex=488 nm and λem=540 nm. Emission peak values above base level after prostaglandin D2 addition are exported after base line subtraction. Values are normalized to high-level control (no test compound added) after subtraction of base line value (no prostaglandin D2 added). The program XLlfit 3.0 (IDBS) is used to fit the data to a single site dose response curve of the equation (A+((B−A)/(1+((C/x)^D)))) and to calculate the IC50 values.
(Calcium flux is commonly read through the fluorescence of an indicator in the cells.)

Assay [2] deals with T1, hCRTH2 receptor. As to the kind of experiment: CRTH2 membranes radioligand binding assay ({3H}-PGD2), Example B-1. Conditions: {3H}-PGD2 radioligand binding, read-out: CRTH2 binding IC50 (nM) (method B1 above). The procedure: The ability of the compounds of formula I, IC1, IC2 or IP to bind to the CRTH2 receptor may be measured by methods similar to those described in Sawyer N. et al., Br. J. Pharmacol. (2002), 137, 1163-1172 and by the method described below in Example B-1.
Preparation of the membranes and radioligand binding assays are performed according to known procedures, e.g. Sawyer N. et al. (Br. J. Pharmacol., 2002, 137, 1163-1172). A clonal HEK 293 cell line, expressing high level of recombinant hCRTH2 receptor, is selected for the preparation of membranes. Cells are detached from culture plates in 5 ml buffer A per plate (5 mM Tris, 1 mM MgCl2x6H2O, 0.1 mM PMSF, 0.1 mM phenanthroline) using a police rubber and transferred into centrifugation tubes and frozen at −80° C. After thawing, the cells are centrifuged at 500 g for 5 min and then resuspended in buffer A. Cells are then fragmented by homogenization with a Polytron homogenizer for 30 s. The membrane fragments are centrifuged at 3000 g for 40 min and resuspended in membranes in buffer B (50 mM Tris, 25 mM MgCl2, 250 mM saccharose, pH 7.4) and aliquots are stored frozen.
Binding assay is performed in a total volume of 250 μl. In each well, 75 μl buffer C (50 mM Tris, 100 mM NaCl, 1 mM EDTA, 0.1% BSA (protease free), 0.01% NaN3, pH 7.4) was mixed with 50 μl {^3H}-PGD2 (at 2.5 nM (220.000 dpm per well) from Amersham, TRK734), 100 μl CRTH2 membranes to give 80 μg per well and 25 μl of test compound in buffer C containing 1% DMSO. For unspecific binding, PGD2 is added to the reaction mixture at 1 μM final concentration. This binding assay mix is incubated at rt for 90 min and then filtered through a GF/C filter plate. The filter is washed three times with ice cold binding buffer. Then, 40 μl per well Microscint-40 (Packard) are added and the bound radioactivity is quantified by means of Topcount (Packard).

As usually defined, the IC50 is the concentration that inhibits the measured activity by half.

As to `N#C/C(=C\c1cn(CC(=O)O)c2ccccc12)C(=O)Nc1cccc(C(=O)c2ccccc2)c1` [Example 54, {3-[(E)-2-(3-benzoyl-phenylcarbamoyl)-2-cyano-vinyl]-indol-1-yl}-acetic acid], the IC50 at hCRTH2 receptor [1] was determined as 98 nM; at hCRTH2 receptor [2], 18 nM.

For `N#C/C(=C\c1cn(CC(=O)O)c2ccccc12)C(=O)Nc1ccccc1Cc1ccccc1` [Example 29, {3-[(E)-2-(2-benzyl-phenylcarbamoyl)-2-cyano-vinyl]-indol-1-yl}-acetic acid], the results for the IC50 at hCRTH2 receptor [1] and at hCRTH2 receptor [2] were 151 nM and 42 nM, respectively.

`CN(C(=O)/C(C#N)=C/c1cn(CC(=O)O)c2ccc(F)cc12)c1ccccc1C(F)(F)F` [Example 141, (3-{(E)-2-cyano-2-[methyl-(2-trifluoromethyl-phenyl)-carbamoyl]-vinyl}-5-fluoro-indol-1-yl)-acetic acid]: the IC50 at hCRTH2 receptor [1] came to 47 nM; on hCRTH2 receptor [2], 17 nM.

For `CN(C(=O)/C(C#N)=C/c1cn(CC(=O)O)c2ccccc12)c1ccccc1` [Example 46, {3-[(E)-2-cyano-2-(methyl-phenyl-carbamoyl)-vinyl]-indol-1-yl}-acetic acid], the IC50 at hCRTH2 receptor [1] is 61 nM; at hCRTH2 receptor [2], 11 nM.

In the case of `Cc1ccc(NC(=O)/C(C#N)=C/c2cn(CC(=O)O)c3ccccc23)cc1Br` [Example 70, {3-[(E)-2-(3-bromo-4-methyl-phenylcarbamoyl)-2-cyano-vinyl]-indol-1-yl}-acetic acid], the half-inhibitory concentration (IC50) at hCRTH2 receptor [1] came out at 58 nM; on hCRTH2 receptor [2], 76 nM.

For `N#C/C(=C\c1cn(CC(=O)O)c2ccccc12)C(=O)Nc1ccccc1Oc1ccc(Cl)cc1Cl` [Example 49, (3-{(E)-2-cyano-2-[2-(2,4-dichloro-phenoxy)-phenylcarbamoyl]-vinyl}-indol-1-yl)-acetic acid], the half-inhibitory concentration (IC50) on hCRTH2 receptor [1] was found to be 146 nM; on hCRTH2 receptor [2], 35 nM.

For the compound `N#C/C(=C\c1cn(CC(=O)O)c2ccccc12)C(=O)N1CCCc2ccccc21` [Example 47, {3-[(E)-2-cyano-3-(3,4-dihydro-2H-quinolin-1-yl)-3-oxo-propenyl]-indol-1-yl}-acetic acid], the results for the IC50 at hCRTH2 receptor [1] and at hCRTH2 receptor [2] were 54 nM and 9 nM, respectively.

With `Cc1ccc2c(/C=C(\C#N)C(=O)N3Cc4ccccc4Cc4ccccc43)cn(CC(=O)O)c2c1` [Example 149, {3-[(E)-2-cyano-3-(6,11-dihydro-dibenzo[b,e]azepin-5-yl)-3-oxo-propenyl]-6-methyl-indol-1-yl}-acetic acid], the figures for the IC50 at hCRTH2 receptor [1] and on hCRTH2 receptor [2] were 253 nM and 49 nM, respectively.

As to `CN(C(=O)/C(C#N)=C/c1cn(CC(=O)O)c2ccccc12)c1cccc(Cl)c1` [Example 101, (3-{(E)-2-[(3-chloro-phenyl)-methyl-carbamoyl]-2-cyano-vinyl}-indol-1-yl)-acetic acid], the IC50 amounted to 182 nM at hCRTH2 receptor [1] and 15 nM at hCRTH2 receptor [2].

As to `COc1ccc(Cl)cc1NC(=O)/C(C#N)=C/c1cn(CC(=O)O)c2ccccc12` [Example 64, {3-[(E)-2-(5-chloro-2-methoxy-phenylcarbamoyl)-2-cyano-vinyl]-indol-1-yl}-acetic acid], the IC50 at hCRTH2 receptor [1] is 61 nM; on hCRTH2 receptor [2] it was 40 nM.

In the case of `N#C/C(=C\c1cn(CC(=O)O)c2ccccc12)C(=O)N1Cc2ccccc2Cc2ccccc21` [Example 89, {3-[(E)-2-cyano-3-(6,11-dihydro-dibenzo[b,e]azepin-5-yl)-3-oxo-propenyl]-indol-1-yl}-acetic acid], the values for the IC50 at hCRTH2 receptor [1] and at hCRTH2 receptor [2] were 114 nM and 6 nM, respectively.

Consider `N#C/C(=C\c1cn(CC(=O)O)c2ccccc12)C(=O)N1c2ccccc2Sc2ccc(Cl)cc21` [Example 113, {3-[(E)-3-(2-chloro-phenothiazin-10-yl)-2-cyano-3-oxo-propenyl]-indol-1-yl}-acetic acid], for which the IC50 at hCRTH2 receptor [1] was determined as 66 nM; at hCRTH2 receptor [2], 9 nM.

As for `N#C/C(=C\c1cn(CC(=O)O)c2ccccc12)C(=O)N1c2ccccc2C=Cc2ccccc21` [Example 87, sodium [3-((E)-2-cyano-3-dibenzo[b,f]azepin-5-yl-3-oxo-propenyl)-indol-1-yl]-acetate], the IC50 stood at 57 nM on hCRTH2 receptor [1] and 12 nM at hCRTH2 receptor [2].

Take `COc1ccc(N(C)C(=O)/C(C#N)=C/c2cn(CC(=O)O)c3ccccc23)cc1` [Example 45, (3-{(E)-2-cyano-2-[(4-methoxy-phenyl)-methyl-carbamoyl]-vinyl}-indol-1-yl)-acetic acid]: the values for the IC50 at hCRTH2 receptor [1] and on hCRTH2 receptor [2] were 48 nM and 7 nM, respectively.

For the compound `N#C/C(=C\c1cn(CC(=O)O)c2ccccc12)C(=O)N(Cc1ccccc1)c1ccccc1` [Example 12, {3-[(E)-2-(benzyl-phenyl-carbamoyl)-2-cyano-vinyl]-indol-1-yl}-acetic acid], the IC50 on hCRTH2 receptor [1] was found to be 90 nM; on hCRTH2 receptor [2], 29 nM.

With `CC(=O)c1ccc(N(C)C(=O)/C(C#N)=C/c2cn(CC(=O)O)c3ccccc23)cc1` [Example 94, (3-{(E)-2-[(4-acetyl-phenyl)-methyl-carbamoyl]-2-cyano-vinyl}-indol-1-yl)-acetic acid], the IC50 on hCRTH2 receptor [1] was 181 nM; at hCRTH2 receptor [2], 10 nM.

Turning to `N#C/C(=C\c1cn(CC(=O)O)c2ccccc12)C(=O)N(CC(=O)O)c1ccccc1` [Example 99, {3-[(E)-2-(carboxymethyl-phenyl-carbamoyl)-2-cyano-vinyl]-indol-1-yl}-acetic acid], the IC50 at hCRTH2 receptor [1] came to 159 nM; on hCRTH2 receptor [2] it was 16 nM.
